Data taken from article PMC8396041, “A Michael Acceptor Analogue, SKSI-0412, Down-Regulates Inflammation and Proliferation Factors through Suppressing Signal Transducer and Activator of Transcription 3 Signaling in IL-17A-Induced Human Keratinocyte” (International Journal of Molecular Sciences, 2021).

Molecular target: T1, STAT3 (Homo sapiens, UniProt P40763)
T1 construct: Recombinant human STAT3 protein (Abnova, cat no. H00006774-P01)
Assay: intrinsic fluorescence quenching titration (ex […] nm, em […] nm)
Type: binding

T1 sequence (P40763 2-770): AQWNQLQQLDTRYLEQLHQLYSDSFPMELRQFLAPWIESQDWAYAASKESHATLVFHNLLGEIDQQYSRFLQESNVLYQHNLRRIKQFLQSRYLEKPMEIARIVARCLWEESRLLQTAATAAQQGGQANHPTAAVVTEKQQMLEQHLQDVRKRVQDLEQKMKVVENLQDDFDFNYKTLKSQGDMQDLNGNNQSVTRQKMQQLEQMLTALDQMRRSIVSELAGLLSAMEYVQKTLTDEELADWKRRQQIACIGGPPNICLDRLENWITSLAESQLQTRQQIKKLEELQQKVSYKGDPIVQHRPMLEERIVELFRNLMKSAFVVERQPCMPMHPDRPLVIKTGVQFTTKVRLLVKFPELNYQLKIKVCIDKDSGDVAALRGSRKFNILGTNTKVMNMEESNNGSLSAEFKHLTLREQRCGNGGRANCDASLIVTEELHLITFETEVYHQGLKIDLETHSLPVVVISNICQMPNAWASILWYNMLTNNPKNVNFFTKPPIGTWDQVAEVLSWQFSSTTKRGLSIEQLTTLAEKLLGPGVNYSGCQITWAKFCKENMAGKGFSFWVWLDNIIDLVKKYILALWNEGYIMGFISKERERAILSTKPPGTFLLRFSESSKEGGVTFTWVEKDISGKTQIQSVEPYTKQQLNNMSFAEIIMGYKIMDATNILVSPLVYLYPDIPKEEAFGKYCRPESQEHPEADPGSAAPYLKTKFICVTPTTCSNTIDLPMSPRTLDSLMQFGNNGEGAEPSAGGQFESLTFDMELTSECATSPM

Kd: 26.8 µM
Structure (SMILES): C=C(C(=O)c1ccc2c(c1)C=CC(C)(C)O2)c1ccc(OC)c(OC)c1 [compound 4, 2-(3,4-Dimethoxyphenyl)-1-(2,2-Dimethyl-2H-Chromen-6-yl)Prop-2-en-1-One]
